Measured values published in ChEMBL document CHEMBL3885861, “Open TG-GATES”.

Species: Rattus norvegicus
Test: Open TG-GATES - Regimen: Single
Format: toxicity, organism-based, Sprague-Dawley
Design: regimen Single, gender Male, age 6 weeks
Settings: in vivo, po, 400 mg/kg, route gavage, dose level High; for APTT / Bas / Eos / Fbg / Hb / Ht / Lym / MCH / MCHC / MCV / Mono / Neu / PT / Plat / RBC / Ret / WBC: tissue Blood; for KIDNEY_L / KIDNEY_R / KIDNEY_TOTAL: tissue Kidney; for LIVER: tissue Liver; for A/G / ALP / ALT / AST / BUN / CRE / Ca / Cl / DBIL / GLC / IP / K / LDH / Na / PL / RALB / TBIL / TC / TG / TP / gamma-GTP: tissue Plasma

COc1ccc(Cc2nccc3cc(OC)c(OC)cc23)cc1OC [PAPAVERINE]
TERMINAL_BW (3 h): 228.2 g
APTT (3 h): 23.4 s
Bas (3 h): 0%
Eos (3 h): 1%
Fbg (3 h): 306.8 mg/dL
Hb (3 h): 13.4 g/dL
Ht (3 h): 40.3%
Lym (3 h): 79%
MCH (3 h): 20.7 pg
MCHC (3 h): 33.3%
MCV (3 h): 62 fL
Mono (3 h): 2.4%
Neu (3 h): 16.2%
PT (3 h): 15.7 s
Plat (3 h): 119 x10_4/uL
RBC (3 h): 649.8 x10_4/ul
Ret (3 h): 7.4%
WBC (3 h): 64.1 x10_2/uL
KIDNEY_L (3 h): 1 g
KIDNEY_R (3 h): 1 g
KIDNEY_TOTAL (3 h): 2 g
LIVER (3 h): 9.9 g
A/G (3 h): 1.2
ALP (3 h): 1181 IU/L
ALT (3 h): 39 IU/L
AST (3 h): 66.8 IU/L
BUN (3 h): 11.4 mg/dL
CRE (3 h): 0.1 mg/dL
Ca (3 h): 10.8 mg/dL
Cl (3 h): 107.2 meq/L
DBIL (3 h): 0 mg/dL
GLC (3 h): 199.4 mg/dL
IP (3 h): 9.7 mg/dL
K (3 h): 4.1 meq/L
LDH (3 h): 182 IU/L
Na (3 h): 140.2 meq/L
PL (3 h): 124 mg/dL
RALB (3 h): 2.9 g/dL
TBIL (3 h): 0.014 mg/dL
TC (3 h): 75.2 mg/dL
TG (3 h): 34 mg/dL
TP (3 h): 5.4 g/dL
gamma-GTP (3 h): 2.4 IU/L
TERMINAL_BW (6 h): 223.8 g
APTT (6 h): 22 s
Bas (6 h): 0%
Eos (6 h): 0.8%
Fbg (6 h): 310.8 mg/dL
Hb (6 h): 13.1 g/dL
Ht (6 h): 40%
Lym (6 h): 78%
MCH (6 h): 20.6 pg
MCHC (6 h): 32.9%
MCV (6 h): 62.7 fL
Mono (6 h): 3.6%
Neu (6 h): 16.6%
PT (6 h): 16 s
Plat (6 h): 119.2 x10_4/uL
RBC (6 h): 639 x10_4/ul
Ret (6 h): 7.8%
WBC (6 h): 84 x10_2/uL
KIDNEY_L (6 h): 1 g
KIDNEY_R (6 h): 1 g
KIDNEY_TOTAL (6 h): 1.9 g
LIVER (6 h): 9.2 g
A/G (6 h): 1.2
ALP (6 h): 1322.6 IU/L
ALT (6 h): 36 IU/L
AST (6 h): 73.6 IU/L
BUN (6 h): 7.6 mg/dL
CRE (6 h): 0.1 mg/dL
Ca (6 h): 11.2 mg/dL
Cl (6 h): 107.4 meq/L
DBIL (6 h): 0.006 mg/dL
GLC (6 h): 178.4 mg/dL
IP (6 h): 10.2 mg/dL
K (6 h): 4.3 meq/L
LDH (6 h): 151.4 IU/L
Na (6 h): 140.6 meq/L
PL (6 h): 125.2 mg/dL
RALB (6 h): 2.9 g/dL
TBIL (6 h): 0.036 mg/dL
TC (6 h): 75 mg/dL
TG (6 h): 38.4 mg/dL
TP (6 h): 5.3 g/dL
gamma-GTP (6 h): 2 IU/L
TERMINAL_BW (9 h): 221.7 g
APTT (9 h): 23 s
Bas (9 h): 0%
Eos (9 h): 0.8%
Fbg (9 h): 313.2 mg/dL
Hb (9 h): 13.5 g/dL
Ht (9 h): 40.5%
Lym (9 h): 75%
MCH (9 h): 20.8 pg
MCHC (9 h): 33.3%
MCV (9 h): 62.5 fL
Mono (9 h): 2.2%
Neu (9 h): 21%
PT (9 h): 16.2 s
Plat (9 h): 120.5 x10_4/uL
RBC (9 h): 648.2 x10_4/ul
Ret (9 h): 7.3%
WBC (9 h): 73.1 x10_2/uL
KIDNEY_L (9 h): 1 g
KIDNEY_R (9 h): 1 g
KIDNEY_TOTAL (9 h): 2 g
LIVER (9 h): 8.5 g
A/G (9 h): 1.3
ALP (9 h): 1235.8 IU/L
ALT (9 h): 26.8 IU/L
AST (9 h): 64 IU/L
BUN (9 h): 7.8 mg/dL
CRE (9 h): 0.1 mg/dL
Ca (9 h): 10.9 mg/dL
Cl (9 h): 108.6 meq/L
DBIL (9 h): 0.008 mg/dL
GLC (9 h): 180.2 mg/dL
IP (9 h): 9.5 mg/dL
K (9 h): 4.3 meq/L
LDH (9 h): 160 IU/L
Na (9 h): 139.8 meq/L
PL (9 h): 123.2 mg/dL
RALB (9 h): 2.9 g/dL
TBIL (9 h): 0.036 mg/dL
TC (9 h): 68.2 mg/dL
TG (9 h): 33.4 mg/dL
TP (9 h): 5.3 g/dL
gamma-GTP (9 h): 1.6 IU/L
TERMINAL_BW (24 h): 240 g
APTT (24 h): 21.2 s
Bas (24 h): 0%
Eos (24 h): 0.8%
Fbg (24 h): 339.6 mg/dL
Hb (24 h): 13 g/dL
Ht (24 h): 39%
Lym (24 h): 78.2%
MCH (24 h): 20.8 pg
MCHC (24 h): 33.4%
MCV (24 h): 62.1 fL
Mono (24 h): 2.6%
Neu (24 h): 17.2%
PT (24 h): 15.7 s
Plat (24 h): 113.2 x10_4/uL
RBC (24 h): 627.8 x10_4/ul
Ret (24 h): 6.6%
WBC (24 h): 86.7 x10_2/uL
KIDNEY_L (24 h): 1 g
KIDNEY_R (24 h): 1 g
KIDNEY_TOTAL (24 h): 2 g
LIVER (24 h): 11.4 g
A/G (24 h): 1.3
ALP (24 h): 1398.4 IU/L
ALT (24 h): 41.2 IU/L
AST (24 h): 66.6 IU/L
BUN (24 h): 14 mg/dL
CRE (24 h): 0.1 mg/dL
Ca (24 h): 10.9 mg/dL
Cl (24 h): 106 meq/L
DBIL (24 h): 0 mg/dL
GLC (24 h): 186.8 mg/dL
IP (24 h): 7.5 mg/dL
K (24 h): 4 meq/L
LDH (24 h): 153.2 IU/L
Na (24 h): 143.4 meq/L
PL (24 h): 149.8 mg/dL
RALB (24 h): 3.1 g/dL
TBIL (24 h): 0.008 mg/dL
TC (24 h): 82 mg/dL
TG (24 h): 125.8 mg/dL
TP (24 h): 5.4 g/dL
gamma-GTP (24 h): 2 IU/L
